The text below walks through data of ChEMBL document CHEMBL1933012, “Design and diversity-oriented synthesis of novel 1,4-thiazepan-3-ones fused with bioactive heterocyclic skeletons and evaluation of their antioxidant and cytotoxic activities” (Bioorg Med Chem Lett, 2012).

Structures are written as SMILES.

One series concerns HCT-116. Nature of the series: Growth inhibition of human HCT116 cells at 1 mg/mL after 48 hrs by MTT assay. The format is functional. To be noted: HCT-116, 48 h, read-out: GI.
Series [1] is described as follows: Cytotoxicity against mouse spleen lymphocytes assessed as cell viability at 1 mg/mL after 48 hrs by MTT assay relative to control. It is filed as tissue-based, Lymphocyte. The conditions noted are these: read-out: Activity.

With `CCn1c2ccccc2c2c3c(ccc21)NC(=O)CSC3c1ccc(C)cc1` (configuration not stated), in the series with HCT-116, the inhibition of growth at 1000 µg/mL was 53.4%. In addition, the viability at 48 h, 1 mg/mL in series [1] turned out to be 93.2%.

Take `CCn1c2ccccc2c2c3c(ccc21)NC(=O)CSC3c1ccc(OC)cc1` (configuration not stated): the inhibition of growth at 1000 µg/mL in the series on HCT-116 worked out at 58.9%. In addition, in series [1], the viability at 48 h, 1 mg/mL is 51.4%.

As to `O=C1CSC(c2ccc(Br)cc2)c2c(ccc3[nH]ncc23)N1` (configuration not stated), the inhibition of growth at 1000 µg/mL with HCT-116 was 63.4%. Moreover, in series [1], the viability at 48 h, 1 mg/mL turned out to be 42.6%.

For `Cc1nn(-c2ccccc2)c2c1C(c1ccc(Cl)cc1)SCC(=O)N2` (configuration not stated), the inhibition of growth at 1000 µg/mL in the series with HCT-116 worked out at 50.2%. Further, the viability at 48 h, 1 mg/mL in series [1] was 82.3%.

On to `CCn1c2ccccc2c2c3c(ccc21)NC(=O)CSC3c1cccs1` (configuration not stated), for which the inhibition of growth at 1000 µg/mL in the series on HCT-116 worked out at 60.3%. Moreover, the viability at 48 h, 1 mg/mL in series [1] turned out to be 45%.

Take `CCn1c2ccccc2c2c3c(ccc21)NC(=O)CSC3c1ccc(Br)cc1` (configuration not stated): the inhibition of growth at 1000 µg/mL in the series on HCT-116 came to 62%. Besides, the viability at 48 h, 1 mg/mL in series [1] was found to be 136%.

As to `Cc1nn(-c2ccccc2)c2c1C(c1cccc([N+](=O)[O-])c1)SCC(=O)N2` (configuration not stated), the inhibition of growth at 1000 µg/mL in the series on HCT-116 came to 54.3%. Moreover, the viability at 48 h, 1 mg/mL in series [1] amounted to 154%.

On to `CCn1c2ccccc2c2c3c(ccc21)NC(=O)CSC3c1ccc2c(c1)OCO2` (configuration not stated), for which the inhibition of growth at 1000 µg/mL with HCT-116 came out at 51.6%. Further, in series [1], the viability at 48 h, 1 mg/mL worked out at 158%.

`Cc1ccc(C2SCC(=O)Nc3ccc4[nH]ncc4c32)cc1` (configuration not stated): the inhibition of growth at 1000 µg/mL with HCT-116 was 66.8%. Also, in series [1], the viability at 48 h, 1 mg/mL was 20.5%.

Consider `COc1cc(C2SCC(=O)Nc3ccc4[nH]ncc4c32)cc(OC)c1OC` (configuration not stated), for which the inhibition of growth at 1000 µg/mL in the series with HCT-116 was found to be 58.2%. In addition, the viability at 48 h, 1 mg/mL in series [1] is 166%.

For the compound `COc1ccc(C2SCC(=O)Nc3onc(C)c32)cc1` (configuration not stated), in the series on HCT-116, the inhibition of growth at 1000 µg/mL came to 60.3%. The viability at 48 h, 1 mg/mL in series [1] was found to be 165%.

Take `O=C1CSC(c2ccc3c(c2)OCO3)c2c(ccc3[nH]ccc23)N1` (configuration not stated): the inhibition of growth at 1000 µg/mL with HCT-116 is 55.9%. Besides, the viability at 48 h, 1 mg/mL in series [1] came out at 155%.

As for `Cc1nn(-c2ccccc2)c2c1C(c1ccc3c(c1)OCO3)SCC(=O)N2` (configuration not stated), in the series with HCT-116, the inhibition of growth at 1000 µg/mL came to 51.3%. Also, in series [1], the viability at 48 h, 1 mg/mL is 66.9%.

Turning to `O=C1CSC(c2ccc(Cl)cc2)c2c(ccc3[nH]ncc23)N1` (configuration not stated), the inhibition of growth at 1000 µg/mL with HCT-116 was determined as 60.9%. For the same compound, the viability at 48 h, 1 mg/mL in series [1] stood at 67.9%.

With `COc1ccc(C2SCC(=O)Nc3c2c(C)nn3-c2ccccc2)cc1` (configuration not stated), in the series on HCT-116, the inhibition of growth at 1000 µg/mL stood at 57.8%. Moreover, the viability at 48 h, 1 mg/mL in series [1] was determined as 78.8%.

As for `Cc1noc2c1C(c1ccc(Br)cc1)SCC(=O)N2` (configuration not stated), the inhibition of growth at 1000 µg/mL with HCT-116 worked out at 63%. Further, the viability at 48 h, 1 mg/mL in series [1] came out at 157%.

Regarding `Cc1nn(-c2ccccc2)c2c1C(c1ccc(Cl)cc1Cl)SCC(=O)N2` (configuration not stated), the inhibition of growth at 1000 µg/mL in the series with HCT-116 amounted to 53.3%. The viability at 48 h, 1 mg/mL in series [1] was 156%.

In the case of `CCn1c2ccccc2c2c3c(ccc21)NC(=O)CSC3c1ccc(OC)c(OC)c1` (configuration not stated), in the series on HCT-116, the inhibition of growth at 1000 µg/mL is 56.2%. Also, in series [1], the viability at 48 h, 1 mg/mL was 101%.

Take `Cc1noc2c1C(c1cccs1)SCC(=O)N2` (configuration not stated): the inhibition of growth at 1000 µg/mL in the series with HCT-116 worked out at 62.6%. For the same compound, the viability at 48 h, 1 mg/mL in series [1] worked out at 160%.

Regarding `Cc1noc2c1C(c1ccc3c(c1)OCO3)SCC(=O)N2` (configuration not stated), the inhibition of growth at 1000 µg/mL in the series on HCT-116 amounted to 50.4%. For the same compound, in series [1], the viability at 48 h, 1 mg/mL is 87.2%.

On to `Cc1ccc(C2SCC(=O)Nc3onc(C)c32)cc1` (configuration not stated), for which the inhibition of growth at 1000 µg/mL in the series on HCT-116 amounted to 64.7%. Further, the viability at 48 h, 1 mg/mL in series [1] stood at 103%.

On to `Cc1noc2c1C(c1ccccc1Cl)SCC(=O)N2` (configuration not stated), for which the inhibition of growth at 1000 µg/mL with HCT-116 turned out to be 54.6%. In series [1], the viability at 48 h, 1 mg/mL is 170%.

For `Cc1nn(-c2ccccc2)c2c1C(c1ccccc1Cl)SCC(=O)N2` (configuration not stated), the inhibition of growth at 1000 µg/mL in the series with HCT-116 was determined as 55.3%. For the same compound, in series [1], the viability at 48 h, 1 mg/mL stood at 68.7%.

For the compound `COc1ccc(C2SCC(=O)Nc3ccc4[nH]ncc4c32)cc1` (configuration not stated), in the series on HCT-116, the inhibition of growth at 1000 µg/mL worked out at 61.8%. For the same compound, the viability at 48 h, 1 mg/mL in series [1] is 44.8%.

As for `COc1ccc(C2SCC(=O)Nc3onc(C)c32)cc1OC` (configuration not stated), in the series with HCT-116, the inhibition of growth at 1000 µg/mL came out at 54.6%. Besides, in series [1], the viability at 48 h, 1 mg/mL came to 165%.

Regarding `Cc1ccc(C2SCC(=O)Nc3c2c(C)nn3-c2ccccc2)cc1` (configuration not stated), in the series with HCT-116, the inhibition of growth at 1000 µg/mL worked out at 58.4%. The viability at 48 h, 1 mg/mL in series [1] is 25.7%.
